{"source": "patent US6737245B1", "about": "“Luciferase expression cassettes and methods of use” (priority 1999, dated 2004)", "assay_type": "in vivo", "details": "four mice, IP at 0, 2, 4 and 6 hr, 500 μl of 0.1% and 0.01%, observed over 24 hours", "method": "Four mice were injected IP at 0, 2, 4 and 6 hr with 500 μl volumes of n-decyl aldehyde at concentrations of 0.1% and 0.01%. Aldehyde solutions were prepared as follows: 100 μl of aldehyde was diluted in 900 μl of ethanol. 10 μl of this 10% solution was then diluted into 990 μl of sterile phosphate buffered saline (PBS) pH 7.4 to give a 0.1% final volume of aldehyde solution. The animals were observed over a 24-hour period.", "data": [{"compound": "CCCCCCCCCC=O", "note": "[n-decyl aldehyde]", "values": [{"measurement": "symptoms of illness or abnormal behavior", "value": "None of the mice showed any apparent symptoms of illness or abnormal behavior"}]}]}
